Patent publication US6878388B1, “Vanadium compounds for treating proliferative cell disorders” (Parker Hughes Institute, priority 2000, dated 2005)

Legend:
[1] = test system: intracranial U87 glioblastoma; assay: Nude mouse model of intracranial glioblastoma; type: in vivo, NCr nude mice
From the text: FIG. 2 illustrates the in vivo antitumor activity of [VO(SO4)(Me2-Phen)2] against intracranial U87 glioblastoma in nude mice. A representative survival curve of [VO(SO4)(Me2-Phen)2]-treated (n=8) and control (n=9) mice is shown.
The animal protocols used in this study were approved by the Parker Hughes Institute Institutional Animal Care and Use Committee (IACUC). Female CB.17 severe combined immuno-deficient (SCID) and NCr nude mice were obtained from Taconic (Germantown, N.Y.) and housed in a specific pathogen-free room located in a secure indoor facility with controlled temperature, humidity, and noise levels. Mice were housed in microisolater cages and fed with autoclaved rodent chow. Water was also autoclaved and supplemented with trimethoprim/sulfomethoxazol 3 days/week.
Nude mice were anesthetized with Avertin (2,2,2-tribromoethanol in tert-amyl alcohol; Aldrich Chemical Co., Milwaukee, Wis.) at a dose of 0.5 mg/g under aseptic conditions in a laminar flow hood. A small hole was drilled through the skull 2 mm to the right of the midline and 2 mm posterior to the bregma. U87 glioblastoma cells (4×10^5 cells in 10 μl of PBS) were intracranially implanted into the right side of the cerebral hemisphere of the mice using a Hamilton syringe fitted to a stereotaxic apparatus with a mouse adaptor (David Kopf Instruments, Tujunga, Calif.) as described earlier (34). Twenty-four hours after inoculation, mice were treated intraperitoneally with [VO(SO4)(Me2-Phen)2] (10 mg/kg/day, n=10) or vehicle (5% DMSO in PBS, n=11) for ten consecutive days. […] The grains were then fixed in formalin, processed for histopathology and the tumor volumes from histological sections were measured as described earlier (Haung et al., J. Biol Chem, 272; 2927-2935, 1997). the remaining mice were monitored twice a day for survival.
Following intracranial implantation of 4×10^5 U87 glioblastoma cells (in 10 μl of PBS) into the right cerebral hemispheres of NCr […] mice [VO(SO4)(Me2-Phen)2] […] The mice wee monitored twice a day for health status. […]

[2] = test system: U373 glioblastoma cell spheroids; assay: Spheroid migration assay; type: cell-based, human; details: for inhibition of tumor cell migration from the spheroids / migration distance: U373 spheroids; for migration distance: 48 h (DMSO control 745±29 μm)
Protocol: Dissociation and migration are the initial steps for infiltration of tumor cells into the surrounding tissue (Pilkington et al., Anticancer Res., 17: 4107-4109, 1997; Giese et al., Neurosurgery, 39: 235-252, 1996; Chintala et al., Front Biosci, 1: d324-39, 1996). Migration of brain tumor cells was monitored using U373 glioblastoma cell spheroids, as described previously (Narla et al., Clin Cancer Res, 4:2463-2471, 1998). Glioblastoma cell spheroids were cultured in 100 mm^2 tissue culture plates precoated with 0.75% agar prepared in MEM supplemented with 10% fetal bovine serum. The cells (5×10^6 cells) were suspended in the medium, seeded onto agar-coated plates and cultured for 5-7 days at 37° C. Spheroids with a diameter of 200-400 μm were selected for use in further experiments. For the migration experiments, the selected spheroids were incubated for 2 hours at 37° C. in serum-free medium containing [VO(SO4)(Me2-Phen)2] in concentrations ranging from 1 μM to 25 μM. The [VO(SO4)(Me2-Phen)2]-treated and vehicle control (DMSO, 0.1%) spheroids were transferred onto fibronectin-coated coverslips (Becton Dickinson, Bedford, Mass.) and placed in 6-well plates containing the same concentrations of [VO(SO4)(Me2-Phen)2] or DMSO in serum-free medium. Spheroids were then kept in a humidified 5CO2 incubator at 37° C. for 48 hours. A total of 4-6 spheroids were used for each concentration. Following the 48 hours incubation period, the spheroids were fixed and stained with Hema-3 solutions and mounted onto glass slides. The distance of tumor cell migration from the spheroid was measured using an ocular micrometer and a transmitted light microscope.
Spheroids measuring 259.2±41.9 μm in diameter were incubated with [VO(SO4)(Me2-Phen)2] or DMSO on fibronectin-coated coverslips. The U373 gioblastoma cells incubated with DMSO rapidly migrated to a distance 745±29 μm away from the spheroid.

## Cc1ccnc2c1ccc1c(C)ccnc12.Cc1ccnc2c1ccc1c(C)ccnc12.O=S(=O)([O-])[O-].[O]=[V+2] [[VO(SO4)(Me2-Phen)2], bis(4,7-dimethyl-1,10-phenanthroline) sulfatooxovanadium (IV)]
[1]; 10 mg/kg/day i.p. for ten consecutive days
  mice remaining alive for >24 days: over 60%
[1]; 10 mg/kg/day i.p. for ten consecutive days, control 19.6±0.6 days, P=0.0002
  median survival time: 24.4 ± 0.8 days
[1]; 17 days after tumor cell inoculation, histological sections, two mice per group
  average tumor volume, fold less than vehicle-treated control: approximately 2.9 fold
[2]; 1 μM, 48 h
  inhibition of tumor cell migration from the spheroids: 58.3±7.3%
[2]; 1 μM
  migration distance: 311.1±54.4 μm
[2]; 2 μM, 48 h
  inhibition of tumor cell migration from the spheroids: 71.2±3.4%
[2]; 2 μM
  migration distance: 214.9±25.7 μm
[2]; U373 spheroids on fibronectin-coated coverslips, 48 h, read-out: IC50 inhibition of tumor cell migration
  IC50: 1400 ± 200 nM
